Assay [1] has as its system primarily cultured hepatocytes of rats. Description: Hepatoprotective activity: inhibition of tert-butyl hydroperoxide-induced necrosis (LDH release) in primary hepatocytes. The class given is cell-based, white rats. As to conditions: 1.2 mM tBH for 50 minutes. As to the method:
In order to measure the hepatoprotective activities of the A. japonica sample fractions, the primarily cultured hepatocytes of white rats were isolated, and then the inhibitory abilities of the fractions against necrosis induced by treating the isolated hepatocytes with 1.2 mM of tert-butyl hydroperoxide for 50 minutes were examined (Park E J et al., Planta Med, 71: 508˜513, 2005).
Hepatocytes were isolated from white rats according to the method of Seglen et al. Briefly, white rats were anesthetized and the abdomen was incised. Then, a catheter was inserted into the portal vein and perfused with Ca^2+, Mg^2+-free Hank's balanced salt solution bubbled with a mixed gas of 5% CO2 and 95% O2 at 37° C. so as to remove blood from the liver. Then, the catheter was perfused with 0.05% type IV collagenase and 1 mM CaCl2 solution. The liver tissue was removed from the body, and a hepatocyte suspension was prepared from the liver tissue and centrifuged at 50×g for 2 minutes. The precipitated hepatocytes were collected and washed twice with Ca^2+, Mg^2+-free Hank's balanced salt solution. The washed hepatocytes were added at a concentration of 1×10^6 cells/ml to Williams' Medium E (WME, GibcoBRL, USA) containing 10% (v/v) fetal bovine serum (FBS, GibcoBRL), 10^−8 M insulin, 50 U/ml of penicillin and 50 μg/ml of streptomycin (Sigma) in an incubator coated with type I collagen, and were then cultured under 5% CO2 at 37° C. After 2 hours of the culture, the cells were washed with Hank's balanced salt solution to remove non-adhered cells, and the medium was replaced with fresh medium. Then, the cells were cultured under 5% CO2 at 37° C. for 16 hours and then used in the experiment.
Herein, tBH is metabolized into free radical intermediates, which initiate lipid peroxidation to affect the cell integrity, and release LDH into the medium, thus forming covalent bonds with cellular molecules causing damage to the cells.

Assay [2] in a line: TOSC (total oxyradical scavenging capacity) assay, peroxyl radicals generated from ABAP. The class given is biochemical. The following applies: both oxyradicals; for scavenging capacity for peroxyl radicals and peroxynitrite: rank in words. As to the method: In order to measure the antioxidative activities of the A. japonica sample fractions, the radical scavenging capacities of the fractions were measured in the following manner using the total oxyradical scavenging capacity (TOSC) assay. The TOSC assay was performed by a modification of the method proposed by Winston et al. (Free Radic. Biol. Med., 24: 480˜493, 1998) (J. Agric. Food Chem. 56, 10510-10514, 2008).
Peroxyl radicals were generated by the thermal homolysis of 2,2′-azobisamidinopropane (ABAP) at 35° C., and peroxynitrite was generated by the spontaneous decomposition of SIN-1.
Then, a total volume of 1 ml of the reaction solution was placed in a 10-ml vial sealed with a rubber septum. For detection of the produced ethylene gas, a gas chromatograph (GC), equipped with a DB-05 capillary column and a flame ionization detector) (FID), was used, an oven set was 60° C., and the injector and the detector were set at 180° C. As a mobile phase, helium was injected into the column at a rate of 2 ml/min. For quantitative determination of the amount of ethylene gas in the vial, 150 μl of gas was sampled from the vial with a gas-tight syringe using a headspace technique and injected into the injector.
The area under the kinetic curve (AUC) was obtained by integrating the graph determined from the results of the above experiment, and the TOSC value was calculated according to the following equation 1 and shown in Table 1 below:
TOSC=100−(∫SA/∫CA×100) [Equation 1]

Where [3] appears, read: Rattus norvegicus, Hepatocyte, 50 min, means ± SE of three independent experiments in triplicate, read-out: ED50 (the source's name).
The mark [4] stands for this setting: Rattus norvegicus, Hepatocyte, 50 min, read-out: LDH release inhibitory rate (ED50).
Setting [5] is: read-out: LDH release inhibitory rate (ED50).

Read-outs that look alike come from different tables or passages of the source.

Take “platyphyllonol-5-xylose [Platyphyllone-5-xylose]”: the “effect on the inhibition of LDH release” value in assay [1] (in words) is “no effect”. For the same molecule, the “activities against reactive oxygen species” value in assay [2] (in words) is recorded as “weak”.
Turning to `COc1cc(C2Oc3cc([C@H]4Oc5cc(O)cc(O)c5C(=O)[C@@H]4O)ccc3OC2CO)ccc1O` (stereo partly shown) [Silibinin, reference compound], the figures for the EC50 in assay [1] (setting [3]) and in assay [1] (setting [4]) were 131 ± 6.7 µM and 131 µM, respectively.
With rubranoside C, in assay [1] (setting [5]), the EC50 worked out at 12.8 µM. The “scavenging capacity for peroxyl radicals and peroxynitrite” value (“scavenging capacity” for short) in assay [2] is given as “second highest”.
As to `O=C(CCc1ccc(O)c(O)c1)C[C@@H](O)CCc1ccc(O)c(O)c1` [hirsutanonol], the EC50 in assay [1] (setting [3]) came to 6.28 ± 0.81 µM; in assay [1] (setting [4]), 6.28 µM. The “scavenging capacity” value in assay [2] is on record as “highest”.
In the case of alnuside B, the EC50 in assay [1] (setting [5]) turned out to be 25.9 µM. In assay [2], the “scavenging capacity” value is “second highest”.
With `O=C(/C=C/CCc1ccc(O)c(O)c1)CCc1ccc(O)c(O)c1` [hirsutenone], the figures for the EC50 in assay [1] (setting [3]) and in assay [1] (setting [4]) were 3.08 ± 0.14 µM and 3.08 µM, respectively. The “scavenging capacity” value in assay [2] is given as “highest”.
As for alnuside A, the EC50 in assay [1] (setting [5]) came to 26.5 µM. In addition, in assay [2], the “scavenging capacity” value was “second highest”.

Source of the values: patent publication US20110144039A1, “ANTIOXIDATIVE AND HEPATOPROTECTIVE COMPOSITIONS CONTAINING DIARYHEPTANOIDS FROM ALNUS JAPONICA” (RNL BIO CO., LTD., priority 2009, published 2011).
